According to patent US12421249B2, “Inhibitors of APOL1 and methods of using same” (Vertex Pharmaceuticals Incorporated, priority 2020, dated 2025):

Target: T1, APOL1 G1 (Homo sapiens, UniProt O14791, I384M/S342G)
T1 sequence (O14791 28-398 S342G/I384M): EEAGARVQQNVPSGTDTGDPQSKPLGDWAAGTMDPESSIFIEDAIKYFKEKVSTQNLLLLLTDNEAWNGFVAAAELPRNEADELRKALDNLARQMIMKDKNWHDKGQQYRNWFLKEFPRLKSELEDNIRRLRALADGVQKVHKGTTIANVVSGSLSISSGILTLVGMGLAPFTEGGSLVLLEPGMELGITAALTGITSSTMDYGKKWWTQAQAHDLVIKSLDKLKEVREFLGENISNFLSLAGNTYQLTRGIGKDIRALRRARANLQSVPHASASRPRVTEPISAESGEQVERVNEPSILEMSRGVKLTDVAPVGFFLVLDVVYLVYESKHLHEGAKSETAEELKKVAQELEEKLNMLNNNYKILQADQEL
Assay: MultiTox-Fluor Multiplex Cytotoxicity Assay in tet-inducible APOL1 G1 T-REx-HEK293 cells (clone G1 DC3.25)
Type: cell-based
Parameters: expressed in transfected cells; host or cells: T-REx HEK293, pAAVS1-Puro-APOL1 G1, clone G1 DC3.25
Details: Multi-Tox Assay; IP50 = IC50 for cell proliferation; APOL1 variant cell line not given
Method: The MultiTox-Fluor Multiplex Cytotoxicity Assay is a single-reagent-addition, homogeneous, fluorescence assay that measures the number of live and dead cells simultaneously in culture wells. The assay measures cell viability and cytotoxicity by detecting two distinct protease activities. The live-cell protease activity is restricted to intact viable cells and is measured using a fluorogenic, cell-permeant peptide glycyl-phenylalanylamino fluorocoumarin (GF-AFC) substrate. The substrate enters intact cells, where it is cleaved to generate a fluorescent signal proportional to the number of living cells. […] A second, cell-impermeant, fluorogenic peptide substrate (bis-AAF-R110 Substrate) is used to measure dead-cell protease that has been released from cells that have lost membrane integrity. A ratio of dead to live cells is used to normalize data.
Briefly, the tet-inducible transgenic APOL1 T-REx-HEK293 cell lines were incubated with 50 ng/mL tet to induce APOL1 in the presence of 3-(2-(4-fluorophenyl)-1H-indol-3-yl)-N-((3S,4R)-4-hydroxy-2-oxopyrrolidin-3-yl)propenamide at […], 0.0045, 0.0015, 0.0005 μM in duplicate for 24 hours in a humidified 37° C. incubator. The MultiTox reagent was added to each well and placed back in the incubator for an additional 30 minutes. The plate was read on the EnVision plate reader. A ratio of dead to live cells was used to normalize, and data was imported, analyzed and fit using Genedata Screener (Basel, Switzerland) software. Data was normalized using percent of control, no tet (100% viability), and 50 ng/mL tet treated (0% viability), and fit using Smart Fit. The reagents, methods, and complete protocol for the MultiTox assay are described below.
Human embryonic kidney (HEK293) cell lines containing a tet-inducible expression system (T-REx™; Invitrogen, Carlsbad, CA) and Adeno-associated virus site 1 pAAVS1-Puro-APOL1 G0 or pAAVS1-Puro-APOL1 G1 or pAAVS1-Puro-APOL1 G2 Clones G0 DC2.13, G1 DC3.25, and G2 DC4.44 were grown in a T-225 flask at ˜90% confluency in cell growth media (DMEM, 10% Tet-free FBS, 2 mM L-glutamine, 100 Units/mL penicillin-streptomycin, 5 μg/mL blasticidin S HCl, 1 μg/mL puromycin dihydrochloride). Cells were washed with DPBS and then trypsinized to dissociate from the flask. Media was used to quench the trypsin, cells were then pelleted at 200 g and resuspended in fresh cell assay media (DMEM, 2% Tet-free FBS, 2 mM L-glutamine, 100 Units/mL penicillin-streptomycin). Cells were counted and diluted to 1.17×10^6 cells/mL. 20 μL of cells (23,400/well) were dispensed to every well of a 384-well Poly-D-Lysine coated plate using the Multidrop dispenser. The plates were then incubated at room temperature for one hour.
Tetracycline is needed to induce APOL1 expression. 1 mg/mL tet stock in water was diluted to 250 ng/mL (5×) in cell assay media. 60 μL of cell assay media (no tet control) was dispensed in columns 1 and 24, and 60 μL of 5× tet was dispensed in 384-PP-round bottom plate in columns 2 to 23 with the Multidrop dispenser.
Assay ready plates from the Global Compound Archive were ordered using template 384_APOL1Cell_DR10n2_50 μM_v3. Compounds were dispensed at 200 nL in DMSO. The final top concentration was 10 μM with a 10 point 3-fold dilution in duplicate in the MultiTox assay.
20 μL were transferred from the 5× tet plate to the ARP and mixed, then 5 μL of 5× tet and the compounds were transferred to the cell plate and mixed using the Bravo. The cell plate was placed in the humidified 37° C. 5% CO2 incubator for 24 hours.
The MultiTox-Fluor Multiplex Cytotoxicity Assay was performed in accordance with the manufacturer's protocol. After cells were incubated with tet and compound for 24 hours, 25 μL of 1× MultiTox reagent was added to each well using the Multidrop dispenser; the plates were placed on a plate shaker (600 rpm) for 2 minutes, then centrifuged briefly and placed back in the 37° C. incubator for 30 minutes. […]

In the case of [2H]C1([2H])O[C@@]2(C[C@@H](c3cn(C)nn3)N[C@@H](C)C2)c2sc(Cl)cc2[C@]1([2H])O [Compound 385, (2S,4S,4′S,6S)-2′-chloro-4′,5′,5′-trideuterio-2-methyl-6-(1-methyltriazol-4-yl)spiro[piperidine-4,7′-thieno[2,3-c]pyran]-4′-ol], the IC50 is reported as < 50 nM.
